Measured values: patent US20100144652A1, “COMPOSITION COMPRISING A GLYCOLYTIC INHIBITOR AND A RING SYSTEM COMPRISING A SULPHAMATE GROUP FOR THE TREATMENT OF CANCER” (Sterix Limited, priority 2007, published 2010)
“Also recorded” adds a separate entry of the source. Like-named read-outs stand apart in the source and are kept apart here.

Assays:
[1] = cited from earlier work
[2] = cited from earlier work; remark: listed apart in the source
steroid sulphatase = target: T1, steroid sulphatase (Homo sapiens, UniProt P08842); conditions: compared with EMATE; cited from earlier work
T1 sequence (P08842 22-583): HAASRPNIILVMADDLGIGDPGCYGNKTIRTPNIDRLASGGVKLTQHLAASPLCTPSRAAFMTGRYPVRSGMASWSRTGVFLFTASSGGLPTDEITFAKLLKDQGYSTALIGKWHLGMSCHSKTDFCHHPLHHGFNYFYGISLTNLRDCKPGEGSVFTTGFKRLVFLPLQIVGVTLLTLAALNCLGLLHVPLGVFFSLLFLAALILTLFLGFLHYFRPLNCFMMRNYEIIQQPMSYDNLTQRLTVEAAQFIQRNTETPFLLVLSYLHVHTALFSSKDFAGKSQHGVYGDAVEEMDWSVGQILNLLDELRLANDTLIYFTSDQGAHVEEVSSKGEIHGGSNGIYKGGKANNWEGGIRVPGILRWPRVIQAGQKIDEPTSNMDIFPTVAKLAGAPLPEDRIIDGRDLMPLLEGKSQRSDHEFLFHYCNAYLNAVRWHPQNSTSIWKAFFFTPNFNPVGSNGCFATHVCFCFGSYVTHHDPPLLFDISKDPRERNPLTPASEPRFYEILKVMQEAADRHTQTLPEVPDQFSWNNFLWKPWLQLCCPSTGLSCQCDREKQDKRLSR

LNCaP cells [3] = assay: Proliferation assay (Alamar blue, microtiter plate); assay type: cell-based; conditions: Homo sapiens; for inhibition at 8000 µM: 2DG alone 8 mM, read-out: inhibition of cell growth
Procedure: (§1) MCF-7 and LNCaP cells were obtained from the American Tissue Culture Collection (ATCC). Cells were cultured in the following supplements, obtained from Sigma: RPMI 1640 with 10% foetal bovine serum, 1% L-glutamine, 1% MEM non-essential amino acids, 1% sodium bicarbonate solution, LNCaP cells also required 1% sodium pyruvate. Cells were maintained in an incubator at 37° C. under 5% CO2 and 95% air atmosphere.
(§2) MCF-7 and LNCaP cells were seeded at 3000 cells/well or 5000 cells/well respectively, in 96 well plates. Compounds were added 4 hours after seeding of cells. […]
(§3) An Innova co-48 CO2 humidified incubator (Newbrunswick Scientific, St. Albans, U.K.) was used to study the effects of 2DG and STX140 on cells under hypoxic conditions. Oxygen was maintained at 1%, CO2 5% and temperature at 37° C.

MCF-7 cells [4] = assay: as above; assay type: cell-based; conditions: Homo sapiens; for inhibition at 8000 µM / inhibition at 0.5 µM: MCF7, 72 h; for inhibition at 8000 µM: MCF-7, 2DG alone 8 mM, 72 h, read-out: inhibition of cell growth
Procedure: as §1, §2, §3

LNCaP cells [5] = assay: Measurement of ATP (ATPlite assay); assay type: cell-based; conditions: 2DG 8 mM, 72 h; for ATP levels: normoxia or hypoxia, STX140 0.1 μM-1 μM, vs untreated normoxic controls
Procedure: as §3
(§4) MCF-7 and LNCaP cells were seeded at 3000 cells/well or 5000 cells/well respectively, in 96 well plates. Compounds were added 4 hours following seeding of cells. The ATPlite assay procedure was carried out according to manufacturer's instructions (Perkin Elmer, Beaconsfield, U.K.) and ATP measured 72 hrs later using a FluoStar Optima Plate reader.

MCF-7 cells [6] = assay: Measurement of ATP (ATPlite assay); assay type: cell-based; conditions: for ATP levels: MCF-7, 72 h, normoxia or hypoxia, 2DG 8 mM, STX140 0.1 μM-1 μM, vs untreated normoxic controls
Procedure: as §3, §4

LNCaP cells [7] = assay: Cell morphology (microscopy); assay type: cell-based; conditions: STX140 0.5 μM, 2DG 8 mM, 96 h, normoxia
Description: (§5) Cells were examined using a Zeiss inverted microscope fitted with a 20× and 40× Plan-Neofluor objective, and analysed through an Axiovision imaging system attached to the microscope.

MCF-7 cells [8] = assay: Cell morphology (microscopy); assay type: cell-based; conditions: MCF-7, STX140 0.5 μM, 2DG 8 mM, 96 h, normoxia
Description: as §5

MCF-7 tumours = assay: In vivo tumour xenograft model, MCF-7 cell tumours; conditions: athymic nude mice, STX140 5 mg/kg p.o. daily, 2DG 2 g/kg i.p. daily, 28 days, compared to control
Procedure: Intact, ovariectomized, athymic, female MF-1 nude mice (nu-/nu-) were purchased from Harlan (Bicester, Oxon, UK) at 5 weeks of age (˜20-25 g in weight). All experiments were carried out under conditions that complied with institutional guidelines. Animals were kept in a 12-hour light/12-hour dark cycle and given food and water ad libitum. Monolayers of MCF-7 cells were removed by trypsinization, and the resultant cell suspension was centrifuged for 5 min. at 1,000×g and then resuspended in ice-cold matrigel (BD Biosciences). Five million MCF-7 cells were injected s.c. into the right flank of the animals. The tumours were allowed to grow for 2 weeks, when the tumours reached 100-150 mm^3 in volume, mice were randomly divided into four treatment groups: 1) vehicle (10% tetrahydrofuran; 90% propylene glycol, […] oral)+saline i.p. 200 ml; 2) vehicle+2DG (2 g/kg) i.p. 200 ml; 3) STX140 (5 mg/kg) […] oral+saline i.p. 200 ml; 4) STX140 (5 mg/kg) […] oral+2DG (2 g/kg) i.p. 200 ml. All treatments were administered daily for 4 weeks, […]. Throughout the study, mice were weighed and tumour measurements were taken on a weekly basis. Tumour volumes were calculated using the formula: length×width^2/2. At the end of the study, tumours were collected for immunohistochemical analysis.

von Willebrand's factor = von Willebrand's factor immunohistochemistry of xenograft sections (vessel density); assay type: in vivo, mice; conditions: sections of MCF-7 xenografts, STX140 5 mg/kg p.o. daily, 2DG 2 g/kg i.p. daily
[9] = system: r^□ cells which have lost their mitochondrial DNA; conditions: Liu et al., 2001; cited from earlier work
MCF-7 cells [10] = conditions: MCF-7, previously calculated by Day and Newman; read-out: IC50, inhibition of proliferation; cited from earlier work
LNCaP cells [11] = conditions: previously calculated by Day and Newman, read-out: IC50, inhibition of proliferation; cited from earlier work
breast cancer cells = conditions: Raobaikady et al., 2003; cited from earlier work
HUVEC cells = conditions: Newman et al., 2004; cited from earlier work
vessel formation = conditions: novel co-culture model system, Newman et al., 2004; cited from earlier work
p-glycoprotein = p-glycoprotein (Homo sapiens, UniProt P08183); conditions: Suzuki, 2003; cited from earlier work
Sequence of p-glycoprotein (P08183 whole entry): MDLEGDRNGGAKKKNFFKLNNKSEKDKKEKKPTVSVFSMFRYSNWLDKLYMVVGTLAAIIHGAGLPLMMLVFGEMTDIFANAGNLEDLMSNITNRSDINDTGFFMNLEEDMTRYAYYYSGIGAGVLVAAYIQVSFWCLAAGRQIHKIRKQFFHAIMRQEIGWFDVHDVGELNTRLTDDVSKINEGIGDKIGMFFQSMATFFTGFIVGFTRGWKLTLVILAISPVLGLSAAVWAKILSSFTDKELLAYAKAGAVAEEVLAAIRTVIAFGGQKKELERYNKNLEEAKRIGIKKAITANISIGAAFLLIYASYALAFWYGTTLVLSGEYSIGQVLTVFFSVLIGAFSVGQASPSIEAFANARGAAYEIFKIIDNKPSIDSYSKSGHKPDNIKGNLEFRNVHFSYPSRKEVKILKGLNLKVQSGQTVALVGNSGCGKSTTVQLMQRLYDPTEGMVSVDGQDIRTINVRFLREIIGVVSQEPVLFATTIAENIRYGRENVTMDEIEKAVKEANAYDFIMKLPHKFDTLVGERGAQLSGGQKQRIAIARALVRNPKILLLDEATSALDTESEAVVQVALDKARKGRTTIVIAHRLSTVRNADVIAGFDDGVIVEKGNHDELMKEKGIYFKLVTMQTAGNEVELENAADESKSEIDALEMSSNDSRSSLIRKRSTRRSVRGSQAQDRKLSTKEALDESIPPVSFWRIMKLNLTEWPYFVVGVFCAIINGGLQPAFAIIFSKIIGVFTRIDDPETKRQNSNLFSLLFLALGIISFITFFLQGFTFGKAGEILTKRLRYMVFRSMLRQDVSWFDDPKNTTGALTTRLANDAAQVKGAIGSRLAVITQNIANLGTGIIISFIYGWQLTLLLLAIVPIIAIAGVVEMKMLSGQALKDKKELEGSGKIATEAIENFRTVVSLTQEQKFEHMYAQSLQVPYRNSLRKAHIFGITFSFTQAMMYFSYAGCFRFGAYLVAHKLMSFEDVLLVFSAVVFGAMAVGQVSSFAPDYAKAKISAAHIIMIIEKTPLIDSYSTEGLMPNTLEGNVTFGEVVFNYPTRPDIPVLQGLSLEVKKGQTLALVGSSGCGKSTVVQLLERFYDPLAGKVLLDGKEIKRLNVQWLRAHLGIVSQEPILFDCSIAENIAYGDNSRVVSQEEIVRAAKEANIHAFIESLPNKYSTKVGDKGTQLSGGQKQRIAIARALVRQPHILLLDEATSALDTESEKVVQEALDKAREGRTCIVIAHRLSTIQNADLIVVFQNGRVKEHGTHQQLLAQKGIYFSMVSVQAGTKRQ

For `COc1cc2c(cc1O)CC[C@@H]1[C@@H]2CC[C@]2(C)[C@@H](O)CC[C@@H]12` [2-MeOE2, 2-methoxyoestradiol, reference compound], the oral bioavailability ([1]; in vivo, po) is given as “very poor oral bioavailability”.
For `COc1cc2c(cc1OS(N)(=O)=O)CC[C@@H]1[C@@H]2CC[C@]2(C)C(=O)CC[C@@H]12` [2-methoxyoestrone-3-O-sulphamate], the oestrogenicity ([2]; rat, in vivo) is given as “devoid of oestrogenicity” and the “potency as steroid sulphatase inhibitor” value (steroid sulphatase) is given as “equipotent with EMATE”.
Compound `O=CC[C@@H](O)[C@H](O)[C@H](O)CO` [2DG, 2-deoxy-D-glucose] has an inhibition at 8000 µM (LNCaP cells [3]; 72 h, hypoxic, 72 h) of 75%, an inhibition at 8000 µM (LNCaP cells [3]; 72 h, normoxic, 72 h) of 50% and an IC50 (LNCaP cells [3]; 120 h, 5 day period, normoxic conditions, read-out: IC50, inhibition of proliferation) of 6700 µM. For the same compound, the inhibition at 8000 µM (MCF-7 cells [4]; hypoxic) was 70%, the inhibition at 8000 µM (MCF-7 cells [4]; normoxic) was 50% and the IC50 (MCF-7 cells [4]; MCF7, 120 h, MCF-7, 5 day period, normoxic conditions, read-out: IC50, inhibition of proliferation) was 8.1 mM. For the same compound, the “ATP per living cell” value (LNCaP cells [5]; vs untreated controls) was “significantly decreases ATP”, the ATP levels (LNCaP cells [5]) was “decreases ATP” and the “ATP per living cell” value (MCF-7 cells [6]; MCF-7, 2DG 8 mM, 72 h, vs untreated controls) was “significantly decreases ATP”. The ATP levels (MCF-7 cells [6]) was “decreases ATP”, the cell morphology (LNCaP cells [7]) was “cells appear to swell up” and the cell morphology (MCF-7 cells [8]) was “cells appear to swell up”. For the same compound, the “growth of MCF-7 tumours” value (MCF-7 tumours) was “did not significantly inhibit tumour growth”, the “von Willebrand's factor staining for endothelial cells (blood vessels)” value (von Willebrand's factor) was “no significant effect” and the “sensitivity of cells lacking mitochondrial DNA relative to wt cells” value [9] was 10 times.
In the case of `C[C@]12CC[C@@H]3c4ccc(OS(N)(=O)=O)cc4CC[C@H]3[C@@H]1CCC2=O` [EMATE, oestrone-3-O-sulphamate], the “oral uterotrophic activity relative to estradiol” value ([2]; rats, oral) is given as 100 times.
With `COc1cc2c(cc1OS(N)(=O)=O)CCC1C2CC[C@]2(C)C(OS(N)(=O)=O)CCC12` (stereo partly shown) [STX140, 2-Methoxyestradiol-3,17-O,O-bis-sulfamate] the IC50 (LNCaP cells [3]; 72 h, read-out: IC50, inhibition of proliferation, LNCaP, hypoxic, 72 h) was 0.316 µM, the IC50 (LNCaP cells [3]; 72 h, read-out: IC50, inhibition of proliferation, LNCaP, normoxic, 72 h) was 0.293 µM and the inhibition at 0.5 µM (LNCaP cells [3]; 72 h, read-out: inhibition of cell proliferation) was 65%. The inhibition at 0.5 µM (MCF-7 cells [4]; read-out: inhibition of cell proliferation, MCF-7, STX140 0.5 μM, hypoxia, 72 h, vs normoxic untreated controls) was 48%, the inhibition at 0.5 µM (MCF-7 cells [4]; read-out: inhibition of cell proliferation, MCF-7, STX140 0.5 μM, normoxia, 72 h, vs normoxic untreated controls) was 45% and the ATP levels (LNCaP cells [5]) was “drops significantly”. The ATP levels (MCF-7 cells [6]) was “drops significantly”, the cell morphology (LNCaP cells [7]) was “shrivelled appearance” and the cell morphology (MCF-7 cells [8]) was “shrivelled appearance”. For the same compound, the “growth of MCF-7 tumours” value (MCF-7 tumours; 5 mg/kg) was “significantly inhibited”, the “von Willebrand's factor staining for endothelial cells (blood vessels)” value (von Willebrand's factor; 5 mg/kg) was “decrease in blood vessels; also recorded: significant reduction” and the IC50 (MCF-7 cells [10]) was 250 nM. For the same compound, the IC50 (LNCaP cells [11]) was 260 nM, the “potency as inhibitor of breast cancer cells compared to 2-MeOE2” value (breast cancer cells) was 6 times and the “inhibition of proliferation of HUVEC cells compared to 2-MeOE2” value (HUVEC cells) was 60 fold. The “activity as inhibitor of vessel formation compared to 2-MeOE2” value (vessel formation) was 10-13 times, the substrate for p-glycoprotein (p-glycoprotein) was “not a substrate for p-glycoprotein” and the oral bioavailability ([1]; literature (Ireson 2004)) was “orally bioavailable”.
